This series can be described thus: Thermogravimetric analysis (TGA) / DSC of API vaporisation from crosslinked β-cyclodextrin micro sponge complex under nitrogen purge. The class given is physicochemical. The procedure: Differential scanning calorimetry (“DSC”) and thermogravimetric analysis (“TGA”) was performed on a Netzsch STA 409PC/PG with Infrared (“IR”) analysis of the volatiles under a purge of nitrogen gas. TGA was completed at a temperature of 250° C.
The suitability of an API for vaping from the insoluble β-cyclodextrin micro sponge, or from other crosslinked polysaccharide micro sponges, can be tested using TGA. When TGA is applied, a sample of API bound with the insoluble β-cyclodextrin micro sponge is heated at a constant rate, simulating the heat used in a vaporisation device. The sample is kept under a constant flow of nitrogen gas, simulating the inhalation of the user, drawing volatile compounds away from the heated sample.
Vaporization kinetics refer to the rate of dissociation of the API as vapour from the micro sponge, as determined by TGA.

Take `CCCCCc1cc(O)c(C/C=C(\C)CCC=C(C)C)c(O)c1C(=O)O` [CBGA, cannabigerolic acid]: the “onset temperature of vaporisation of CBG following decarboxylation from CBGA (TGA)” value (Example III, ramp rate 5° C. min^-1) stood at 190 °C. Regarding `CCCCCc1cc(O)c(C/C=C(\C)CCC=C(C)C)c(O)c1` [CBG, cannabigerol], for the setting “Examples II, IV, V, VI, ramp rate 5° C. min^-1”, the “onset temperature of vaporisation of API (TGA)” value is 190 °C.

With `C=C(C)[C@@H]1CCC(C)=C[C@H]1c1c(O)cc(CCCCC)cc1O` [CBD, cannabidiol], the “onset temperature of vaporisation of CBD (TGA)” value (Example I, ramp rate 10° C. min^-1) turned out to be 160 °C.
